Patent US11000033B2, “Ketone or oxime compound, and herbicide” (NISSAN CHEMICAL CORPORATION, priority 2014, dated 2021)

What was measured:
Type in all cases: in vivo
[1] = system: Alopecurus myosuroides; experiment: Test Example 5: herbicidal effect by foliage application, plastic box (symbol J); details: 320 g/ha, 3 weeks after application
How it was run: (§1)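 After sowing into sterilized diluvial soil and growing two weeks under glass at 25° C. to 30° C., seedlings receive a uniform foliar spray of diluted emulsion. Damage is judged visually three weeks on.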

[2] = system: Amaranthus retroflexus; experiment: Test Example 4: herbicidal effect by soil treatment (symbol N); details: application herbicide amount 320 g/ha
How it was run: (§2)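 Seeds were sown in sterilized diluvial soil, covered with about 1.5 cm of soil, and the soil surface was sprayed with a water-diluted emulsion of the compound at a predetermined rate. Plants grew in a greenhouse at 25° C. to 30° C.; effects were scored visually 3 weeks after application.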

[3] = system: Scirpus juncoides; experiment: Test Example 1: herbicidal activity, application before weed generation in submerged conditions (symbol B); details: application herbicide amount 320 g/ha
How it was run: (§3)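 Weeds are sown into submerged alluvial soil alongside transplanted 2.5-leaf rice, and the compound, as an emulsion diluted to a set rate, is applied onto the water before emergence. Rating on the 0–5 herbicidal-ratio scale follows 3 weeks of greenhouse growth at 25–30 °C.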

[4] = system: Setaria viridis; experiment: Test Example 5: herbicidal effect by foliage application, plastic box (symbol G); details: 320 g/ha, 3 weeks after application
How it was run: as §1

[5] = system: Galium spurium; experiment: Test Example 4: herbicidal effect by soil treatment (symbol Q); details: application herbicide amount 320 g/ha
How it was run: as §2

[6] = system: Echinochloa oryzacola Vasing.; experiment: Test Example 1: herbicidal activity, application before weed generation in submerged conditions (symbol A); details: application herbicide amount 320 g/ha
How it was run: as §3

[7] = system: Setaria viridis; experiment: Test Example 4: herbicidal effect by soil treatment (symbol G); details: application herbicide amount 320 g/ha
How it was run: as §2

[8] = system: Echinochloa crus-galli var. crus-galli; experiment: Test Example 5: herbicidal effect by foliage application, plastic box (symbol H); details: 320 g/ha, 3 weeks after application
How it was run: as §1

[9] = system: Chenopodium album; experiment: Test Example 4: herbicidal effect by soil treatment (symbol O); details: application herbicide amount 320 g/ha
How it was run: as §2

[10] = system: Veronica persica; experiment: Test Example 4: herbicidal effect by soil treatment (symbol R); details: application herbicide amount 320 g/ha
How it was run: as §2

SMILES	J: Alopecurus myosuroides, herbicidal effect (criteria of Test Example 1) [1]	Herbicidal effect grade, N: Amaranthus retroflexus [2]	Herbicidal effect grade, B: Scirpus juncoides [3]	G: Setaria viridis, herbicidal effect (criteria of Test Example 1) [4]	Herbicidal effect grade, Q: Galium spurium [5]	Herbicidal effect grade, A: Echinochloa oryzacola Vasing. [6]	Herbicidal effect grade, G: Setaria viridis [7]	H: Echinochloa crus-galli var. crus-galli, herbicidal effect (criteria of Test Example 1) [8]	J: Alopecurus myosuroides, herbicidal effect grade [1]	N (Amaranthus retroflexus) herbicidal effect grade [2]	G: Setaria viridis, herbicidal effect grade [4]	Q (Galium spurium) herbicidal effect grade [5]	G (Setaria viridis) herbicidal effect grade [7]	H: Echinochloa crus-galli var. crus-galli, herbicidal effect grade [8]	N: Amaranthus retroflexus, herbicidal effect grade [2]	O: Chenopodium album, herbicidal effect grade [9]	G: Setaria viridis, herbicidal effect grade [7]	R: Veronica persica, herbicidal effect grade [10]	Herbicidal effect grade, O: Chenopodium album [9]	Herbicidal effect grade, R: Veronica persica [10]
CCc1cc(Br)cc(C)c1C1=C(O)CC(C(C(C)=O)C(=O)OC)C1=O (stereo not drawn) [7-001]	3 (Herbicidal ratio of 40% or higher and lower than 70%)	0 (Herbicidal ratio of 5% or lower (almost no effect))	0 (Herbicidal ratio of 5% or lower (almost no effect))	3 (Herbicidal ratio of 40% or higher and lower than 70%)	0 (Herbicidal ratio of 5% or lower (almost no effect))	0 (Herbicidal ratio of 5% or lower (almost no effect))	4 (Herbicidal ratio of 70% or higher and lower than 90%)	4 (Herbicidal ratio of 70% or higher and lower than 90%)												
CON=C(C)CC1CC(OC(=O)C2CC2)=C(c2c(C)cc(C)cc2C)C1=O (stereo not drawn) [1-015]			5 (Herbicidal ratio of 90% or more (almost completely withered))			5 (Herbicidal ratio of 90% or more (almost completely withered))			5 (Herbicidal ratio of 90% or more (almost completely withered))	5 (Herbicidal ratio of 90% or more (almost completely withered))	5 (Herbicidal ratio of 90% or more (almost completely withered))	3 (Herbicidal ratio of 40% or higher and lower than 70%)	3 (Herbicidal ratio of 40% or higher and lower than 70%)	5 (Herbicidal ratio of 90% or more (almost completely withered))						
CON=C(C)CC1CC(O)=C(c2c(C)cc(-c3ccc(F)cc3)cc2C)C1=O (mixture of isomers) [6-058]	5 (Herbicidal ratio of 90% or more (almost completely withered))		5 (Herbicidal ratio of 90% or more (almost completely withered))	5 (Herbicidal ratio of 90% or more (almost completely withered))		5 (Herbicidal ratio of 90% or more (almost completely withered))		5 (Herbicidal ratio of 90% or more (almost completely withered))							5 (Herbicidal ratio of 90% or more (almost completely withered))	5 (Herbicidal ratio of 90% or more (almost completely withered))	5 (Herbicidal ratio of 90% or more (almost completely withered))	5 (Herbicidal ratio of 90% or more (almost completely withered))		
CC(=O)CC1CC(O)=C(c2c(C)cc(-c3ccc(Cl)cc3)cc2C)C1=O (stereo not drawn) [7-008]	5 (Herbicidal ratio of 90% or more (almost completely withered))	0 (Herbicidal ratio of 5% or lower (almost no effect))	2 (Herbicidal ratio of 20% or higher and lower than 40%)	5 (Herbicidal ratio of 90% or more (almost completely withered))		4 (Herbicidal ratio of 70% or higher and lower than 90%)	5 (Herbicidal ratio of 90% or more (almost completely withered))	5 (Herbicidal ratio of 90% or more (almost completely withered))											0 (Herbicidal ratio of 5% or lower (almost no effect))	0 (Herbicidal ratio of 5% or lower (almost no effect))
CON=C(C)CC1CC(OC(=O)N2CCOCC2)=C(c2c(C)cc(-c3ccc(Cl)cc3)cc2OC)C1=O (stereo not drawn) [6-078, 2-(4′-chloro-3-methoxy-5-methyl-[1,1′-biphenyl]-4-yl)-4-{2-(methoxyimino)propyl}-3-oxocyclopent-1-ene-1-yl morpholine-4-carboxylate]	5 (Herbicidal ratio of 90% or more (almost completely withered))		5 (Herbicidal ratio of 90% or more (almost completely withered))	5 (Herbicidal ratio of 90% or more (almost completely withered))		5 (Herbicidal ratio of 90% or more (almost completely withered))		5 (Herbicidal ratio of 90% or more (almost completely withered))							0 (Herbicidal ratio of 5% or lower (almost no effect))	0 (Herbicidal ratio of 5% or lower (almost no effect))	5 (Herbicidal ratio of 90% or more (almost completely withered))	0 (Herbicidal ratio of 5% or lower (almost no effect))		
CON=C(C)C(C(C)=NOC)C1CC(O)=C(c2c(C)cc(C)cc2C)C1=O (stereo not drawn) [1-021]			0 (Herbicidal ratio of 5% or lower (almost no effect))			0 (Herbicidal ratio of 5% or lower (almost no effect))			3 (Herbicidal ratio of 40% or higher and lower than 70%)	0 (Herbicidal ratio of 5% or lower (almost no effect))	1 (Herbicidal ratio of 5% or higher and lower than 20%)	0 (Herbicidal ratio of 5% or lower (almost no effect))	0 (Herbicidal ratio of 5% or lower (almost no effect))	3 (Herbicidal ratio of 40% or higher and lower than 70%)						
CON=C(C)CC1CC(OC(=O)COc2ccccc2)=C(c2c(C)cc(-c3ccc(Cl)cc3Cl)cc2C)C1=O (stereo not drawn) [6-092]	5 (Herbicidal ratio of 90% or more (almost completely withered))	0 (Herbicidal ratio of 5% or lower (almost no effect))	0 (Herbicidal ratio of 5% or lower (almost no effect))	5 (Herbicidal ratio of 90% or more (almost completely withered))		3 (Herbicidal ratio of 40% or higher and lower than 70%)	5 (Herbicidal ratio of 90% or more (almost completely withered))	4 (Herbicidal ratio of 70% or higher and lower than 90%)											0 (Herbicidal ratio of 5% or lower (almost no effect))	0 (Herbicidal ratio of 5% or lower (almost no effect))
CON=C(C)CC1CC(OC(=O)C(C)CSC)=C(c2c(C)cc(-c3ccc(Cl)cc3)cc2C)C1=O (stereo not drawn) [6-086]	5 (Herbicidal ratio of 90% or more (almost completely withered))	3 (Herbicidal ratio of 40% or higher and lower than 70%)	2 (Herbicidal ratio of 20% or higher and lower than 40%)	5 (Herbicidal ratio of 90% or more (almost completely withered))		5 (Herbicidal ratio of 90% or more (almost completely withered))	5 (Herbicidal ratio of 90% or more (almost completely withered))	5 (Herbicidal ratio of 90% or more (almost completely withered))											3 (Herbicidal ratio of 40% or higher and lower than 70%)	4 (Herbicidal ratio of 70% or higher and lower than 90%)
COc1ccc(-c2cc(C)c(C3=C(O)CC(CC(C)=O)C3=O)c(C)c2)cc1 (stereo not drawn) [7-006]	3 (Herbicidal ratio of 40% or higher and lower than 70%)	0 (Herbicidal ratio of 5% or lower (almost no effect))	0 (Herbicidal ratio of 5% or lower (almost no effect))	5 (Herbicidal ratio of 90% or more (almost completely withered))		3 (Herbicidal ratio of 40% or higher and lower than 70%)	0 (Herbicidal ratio of 5% or lower (almost no effect))	5 (Herbicidal ratio of 90% or more (almost completely withered))											0 (Herbicidal ratio of 5% or lower (almost no effect))	0 (Herbicidal ratio of 5% or lower (almost no effect))
